Patent publication US20260176636A1, “APTAMER-DIRECT INHIBITOR CONJUGATES AND METHODS OF USING THE SAME” (Duke University, priority 2022, published 2026)
Entries after “also recorded” stand apart in the source; their conditions may differ.

Key:
[1] = target: T1, human factor Xa (Homo sapiens, UniProt P00742); experiment: Fluorogenic activity assay (fluorescent peptidyl substrate cleavage), factor Xa; assay type: biochemical; conditions: for IC50: factor Xa 0.5 nM, fluorogenic substrate 50 μM; for factor Xa inhibition, result in words: fluorogenic substrate assay; for antidote reversal of factor Xa inhibition by 11F7t-20A-DAB, result in words: antidote oligonucleotide
T1 construct: Human alpha thrombin, human factor Xa, and human fibrinogen were purchased from Haematologic Technologies Inc; purchased Haematologic Technologies Inc
Experimental: (§2) Fluorogenic activity assay: All reagents were freshly reconstituted in the reaction buffer (20 mM HEPES, 150 mM NaCl, and 2 mM CaCl2), 0.02%, Tween 20, pH 7.5) before the assay. 10 μL of thrombin or factor Xa (final concentration 0.5 nM) were first incubated with 5 μL of inhibitor, inhibitor/antidote mixture, or buffer control on a 384-well opaque plate for 5 min at 28° C. 10 μL of fluorogenic substrate (final concentration 50 μM) was then added to the mixture and the time-course fluorescence (λex=352 nm, λem=470 nm) of the sample were recorded every minute for 15 min at 28° C. using a SpectraMax i3 microplate reader (Molecular Devices). The catalytic rate of the protease was quantified by the slope from linear regression of the time-dependent fluorescence intensity and normalized with the sample containing no inhibitor as 100%. Each experiment was performed in triplicates.

[2] = target: Human alpha thrombin (Homo sapiens, UniProt P00734); experiment: Fluorogenic activity assay (fluorescent peptidyl substrate cleavage), thrombin; conditions: for thrombin inhibition, result in words / antidote reversal of thrombin inhibition, result in words: fluorogenic substrate assay; for maximum inhibition of thrombin activity: thrombin 0.5 nM, fluorogenic substrate; for antidote reversal of thrombin inhibition, result in words: antidote oligonucleotide
Experimental: Initial velocity studies of fluorescent peptidyl substrate cleavage by thrombin were used to assess protease inhibition by the EXACT inhibitor (FIG. 1c).
as §2

[3] = target: factor Xa; conditions: cited from earlier work
[4] = target: T2, thrombin (cleavage of fibrinogen) (Homo sapiens, UniProt P00734); experiment: Fibrinogen turbidity assay; assay type: biochemical; conditions: for inhibition of thrombin-mediated fibrin clot formation, result in words: 50 nM inhibitor, 2.5 nM thrombin, 0.8 mg/mL fibrinogen, absorbance 550 nm
T2 construct: Human alpha thrombin, human factor Xa, and human fibrinogen were purchased from Haematologic Technologies Inc; purchased Haematologic Technologies Inc
Experimental: To test the kinetics of antidote reversal, 1 μL AO2 (final concentration 2 μM) was added to the reaction 10 min after fibrinogen addition. The maximum absorption over the period of assay in the absence and presence of different inhibitors were determined. The time to reach 10%, 50%, and 90% maximum absorption increase from the start point were calculated and recorded as lag time, t50, and t90, respectively, for each inhibitor to evaluate the kinetic of fibrinogen activation. Each experiment was performed in triplicates to determine the mean and standard deviation of each parameter.

[5] = target: T3, thrombin (FVIII activation) (Homo sapiens, UniProt P00734); experiment: Thrombin cleavage of FVIII (SDS-PAGE); assay type: biochemical; conditions: 100 nM inhibitor, 1 nM thrombin, 100 nM FVIII
T3 construct: Human alpha thrombin, human factor Xa, and human fibrinogen were purchased from Haematologic Technologies Inc; purchased Haematologic Technologies Inc
Experimental: Thrombin (final concentration 1 nM) was incubated in the absence or presence of thrombin inhibitors (final concentration 100 nM) at 37° C. for 5 min following by addition of recombinant human FVIII (final concentration 100 nM). Sample were collected at 1, 2, 5, 10, 20, 30, 40, and 60 min of reaction and quenched in SDS loading buffer and heating at 95° C. for 5 min. The digestion products at different time points are then characterized on a 4-20% PAGE gel. Thrombin's activity on activating FVIII in the absence and presence of thrombin inhibitors were quantified using the time-course concentration of intact light chain under thrombin digestion determined by band intensity. The assay was performed in duplicates.

[6] = tested on: normal human plasma; experiment: Thrombin time (TT) plasma coagulation assay; conditions: for effect on TT, result in words: normal human plasma
Experimental: (§1) Plasma coagulation assays: Thrombin time (TT), prothrombin time (PT), and activated partial thromboplastin time (aPTT) assays were performed in citrated normal human plasma on a hemostasis coagulation analyzer (Diagnostica Stago). For TT, 5 μL of inhibitors in the reaction buffer were mixed with 100 μL of plasma and incubated at 37° C. for 5 min. 50 μL of thrombin (6 NIH units/ml) in the reaction buffer was then added to initiate clotting. For PT, 5 μl of inhibitors in the reaction buffer were mixed with 50 μL of plasma and incubated at 37° C. for 5 min. 100 μL of TriniCLOT PT Excel S reagent was then added to initiate clotting. For aPTT, 5 μL of inhibitors in the reaction buffer were mixed with 50 μL of plasma and incubated at 37° C. for 5 min, 50 μL of TriniCLOT aPTT S reagents was then added followed by another 5 min incubation at 37° C. Finally, 50 μL of 20 mM CaCl2) was added to initiate clotting. To characterize antidote reversal of HD22-7A-DAB in the above assays, 5 μL AO2 (finial concentration 2 μM) in the reaction buffer was added after 5-min incubation between plasma and HD22-7A-DAB, followed by another 5 min of incubation before the next step. All assays are performed induplicates.

[7] = tested on: normal human plasma; experiment: Prothrombin time (PT) plasma coagulation assay; conditions: for effect on PT, result in words: normal human plasma, comparison with DAB at 500 nM
Experimental: as §1

[8] = tested on: normal human plasma; experiment: Activated partial thromboplastin time (aPTT) plasma coagulation assay; conditions: for effect on aPTT, result in words: normal human plasma, comparison with DAB at 500 nM
Experimental: as §1

[9] = target: T4, thrombin (Homo sapiens, UniProt P00734); conditions: cited from earlier work
[10] = tested on: whole human blood; experiment: Active clotting time (ACT)
Experimental: Active clotting time (ACT): Citrated blood (72 μL) freshly collected from heathy donors were incubated with 6 μL inhibitors reconstituted in the reaction buffer at room temperature for 3 min following addition of 2.1 μL CaCl2) (245 mM). The blood mixture was then immediately analyzed on an ACT+ cuvette (Accriva Diagnostics) using a Hemochron Jr Signature (Instrumentation Laboratory). The assay was performed with a N value of five. One-way ANOVA test was used to compare between two sets of data.

[11] = Plasma stability (nuclease degradation, denaturing PAGE); assay type: in vitro ADME; conditions: 500 nM conjugate in human plasma (10 U/mL heparin), 37° C.
Experimental: FIG. 16. End modification of aptamer for higher plasma stability. (a) 3′ modification of HD22-DAB conjugate with invdT or cholesterol modification retain high inhibition potency to thrombin in fluorogenic substrate assay. (b) End modification of HD22-7A-DAB with 3′ invdT or cholesterol prolong […] in plasma. Plasma was prepared from whole blood collected from healthy volunteers that was supplemented with 10 U/mL of heparin to prevent coagulation. 500 nM of aptamer-drug conjugate were incubated with 200 μL of the plasma at 37° C. 20 μL of plasma reaction was collected at different time point (0, 10, 30, 60, 120, 360 min) and immediately vortexed with 100 μL phosphate buffer saline, 100 μL chloroform, and 200 μL methanol to quench nucleases. A mixture of 100 μL water and 100 μL chloroform was further added to extract the nucleic acids. The mixture was vortexed and centrifuged 500 rcf×20 min, and the aqueous phase containing nucleic acids was collected, lyophilized, reconstituted in water, and analyzed on a 15% polyacrylamide gel containing 7M urea.

[12] = target: T4, thrombin; experiment: Bio-layer interferometry; assay type: binding; set-up: Human alpha thrombin, human factor Xa, and human fibrinogen were purchased from Haematologic Technologies Inc; purchased Haematologic Technologies Inc
Experimental: Bio-layer interferometry: Bio-layer inferometry was performed using Octet R8 BLI System (Sartorius). Briefly, 3.3 nM of biotinylated HD22-7A-DAB, HD22-7A-NH2, HD23-7A-DAB, and HD23-7A-NH2 were immobilized to Octet streptavidin biosensors (Sartorius). […] A 30-min dissociation was performed in buffer containing 200 nM HD22-7A-DAB. The existence of free HD22-7A-DAB in dissociation buffer prevents re-binding of thrombin and provides more accurate koff measurements.

[13] = 2 μM AO2 added at 10 min to thrombin-fibrinogen-HD22-7A-DAB (50 nM)

T1 sequence (P00742 235-488 limits assumed): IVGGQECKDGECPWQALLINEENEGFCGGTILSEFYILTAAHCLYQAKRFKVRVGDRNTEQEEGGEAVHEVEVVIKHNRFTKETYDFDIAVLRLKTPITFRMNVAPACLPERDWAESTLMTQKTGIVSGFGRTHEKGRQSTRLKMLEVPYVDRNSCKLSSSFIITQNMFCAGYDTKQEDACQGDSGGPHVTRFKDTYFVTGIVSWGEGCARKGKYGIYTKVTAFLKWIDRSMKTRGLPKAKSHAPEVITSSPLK
T1 sequence (P00742 41-179 limits assumed): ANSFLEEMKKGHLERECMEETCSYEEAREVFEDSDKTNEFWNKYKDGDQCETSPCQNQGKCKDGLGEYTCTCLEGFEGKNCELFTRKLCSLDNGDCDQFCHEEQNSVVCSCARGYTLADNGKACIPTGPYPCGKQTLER

With “11F7t-20A-DAB (GAGAGCCCCAGCGAGAUAAUACUUGGCCCCGCUCUUU; 5' DAB-C6H12-2'OMeA linker conjugate; modified_base 37 OTHER; Inverted dT)” the IC50 [1] was 0.18 nM, the “factor Xa inhibition, result in words” value [1] was “significantly higher inhibitory effect of thrombin than DAB, 11F7t, or their equimolar mixture” and the “enhancement in the IC50 for factor Xa when DAB is conjugated to 11F7t” value ([1]; versus free DAB) was over 2500 fold. For the same compound, the “thrombin inhibition, result in words” value [2] was “no different from DAB alone”.
For “TAP: Tick anticoagulant peptide secreted by Ornithodoros moubata, factor Xa inhibitor (YNRLCIKPRDWIDECDSNEGGERAYFRNGKGGCDSFWICPEDHTGADYYSSYRDCFNACI; UniProt P17726 1-60, looked up)”, the Ki ([3]; read-out: Ki, free FXa) is listed as 0.18 nM.
In the case of “AO5.4: antidote for 11F7t-20A-DAB pairing with entire linker and part of aptamer, SEQ ID NO: 11 (TATTATCTCGCTGGGGCTCTCTTTTTTTTTTTTTTTTTTTT; antidote oligonucleotide, chemistry not given here, further chemistry not given here)”, the “antidote reversal of factor Xa inhibition by 11F7t-20A-DAB, result in words” value ([1]; listed as A05.4) is reported as “efficiently reversed” and the “antidote reversal of factor Xa inhibition by 11F7t-20A-DAB, result in words” value ([1]; listed as AG5.4) is reported as “effectively reverses the inhibition”.
In the case of `COc1ccc(-n2nc(C(=O)O)c3c2C(=O)N(c2ccc(N4CCCCC4=O)cc2)CC3)cc1` [APX, apixaban-COOH, reference compound], the IC50 [1] is reported as 5.5 nM.
For “HD22: thrombin exosite II-binding DNA aptamer, SEQ ID NO: 1 [reference compound]”, the “inhibition of thrombin-mediated fibrin clot formation, result in words” value [4] was “did not inhibit this thrombin activity”, the “inhibition of thrombin-mediated FVIII cleavage, result in words” value [5] was “showed an inhibitory effect” and the “effect on TT, result in words” value [6] was “minimally affected TT”. The “effect on PT, result in words” value [7] was “no anticoagulant effect”, the “effect on aPTT, result in words” value [8] was “no anticoagulant effect” and the Kd ([9]; read-out: KD, thrombin anion binding exosite 2) was 0.5 nM. For the same compound, the “maximum inhibition of thrombin activity” value [2] was 30%.
For “11F7t: factor Xa RNA aptamer, SEQ ID NO: 9 (GAGAGCCCCAGCGAGAUAAUACUUGGCCCCGCUCUUU; modified_base 37 OTHER; Inverted dT) [reference compound]”, the “factor Xa inhibition, result in words” value [1] is given as “showed no inhibition” and the Kd ([3]; free aptamer) is given as 1.26 nM.
With “11F7t-20A-APX (GAGAGCCCCAGCGAGAUAAUACUUGGCCCCGCUCUUU; 5' APX-C6H12-2'OMeA linker conjugate; modified_base 37 OTHER; Inverted dT)” the IC50 [1] was 0.17 nM and the “effect on aPTT, result in words” value [8] was “significantly higher anticoagulant activity than free aptamer, small molecule inhibitor, and their equimolar mixture”.
With HD22-7A-DAB the “inhibition of thrombin-mediated fibrin clot formation, result in words” value [4] was “completely inhibited”, the “inhibition of thrombin-mediated FVIII cleavage, result in words” value [5] was “no proteolysis was observed for over one hour” and the TT clotting time ([6]; 31 nM) was over 999 s. The “effect on TT at inhibitor concentration lower than the added thrombin” value ([6]; below 13.4 nM) was “limited effect on TT”, the “TT clotting time (measurable range of analyzer)” value ([6]; concentration exceeds 16 nM) was over 999 s and the “effect on TT, result in words” value [6] was “rivals UFH”. The “effect on PT, result in words” value [7] was “significantly longer than the same concentration of DAB; also recorded: rivals UFH”, the “effect on aPTT, result in words” value [8] was “significantly longer than the same concentration of DAB; also recorded: weaker anticoagulant than UFH” and the “ACT compared with 5 U/mL UFH” value ([10]; 1 μM) was “comparable to”. For the same compound, the “ACT compared with 5 U/mL UFH” value ([10]; 2 μM) was “significantly higher than”, the “ACT (measurable range of analyzer)” value ([10]; 2 μM, whole blood) was over 999 s and the ACT ([10]; 1-μM concentration, whole human blood) was 624 s. The “effect on ACT, result in words” value ([10]; whole human blood) was “dose dependently prolonged ACT; also recorded: significantly higher than the ACTs that followed the addition of DAB, HD22, or their equimolar mixture”, the half-life in plasma [11] was “around 1 hour” and the “thrombin inhibition at a concentration of 1 nM” value ([2]; 1 nM inhibitor) was “completely inhibits thrombin activity”. For the same compound, the “thrombin inhibition, result in words” value [2] was “significantly higher inhibitory effect of thrombin than DAB, HD22, or their equimolar mixture”, the “potency higher than DAB” value ([2]; ratio of IC50 against thrombin) was 500 fold and the “maximum inhibition of thrombin activity” value [2] was over 99%. The “koff for thrombin binding” value ([12]; dissociation in buffer with 200 nM HD22-7A-DAB) was 0.0021 s⁻¹ and the “kon for thrombin binding” value ([12]; immobilized biotinylated inhibitor) was 3.9e+07 M⁻¹ s⁻¹.
In the case of hirudin, the Ki ([9]; read-out: inhibition constant (Ki), thrombin) is given as 0.01 nM.
With “AO2: antidote oligonucleotide complementary to entire HD22 aptamer and linker, SEQ ID NO: 4 (AGTCACCCCAACCTGCCCTACCACGGACTTTTTTTT; antidote oligonucleotide complementary to aptamer and linker, chemistry not given here, further chemistry not given here)” the “lag time after antidote addition” value [4, 13] was 9.8 min, the “time over which absorbance increased and saturated after antidote” value [4, 13] was 20.7 min and the “antidote reversal of HD22-7A-DAB in TT” value ([6]; 2 μM AO2) was “largely reversed within 5 minutes”. The “antidote reversal of HD22-7A-DAB in PT” value ([7]; 2 μM AO2) was “efficiently reversed”, the “antidote reversal of HD22-7A-DAB in aPTT” value ([8]; 2 μM AO2) was “efficiently reversed” and the “reduction of the potency of HD22-7A-DAB by antidote” value ([2]; antidote oligonucleotide added to HD22-7A-DAB, FIG. 1c) was “more than 10,000 fold”. For the same compound, the “antidote reversal of thrombin inhibition, result in words” value [2] was “efficiently reversed; also recorded: reduces the potency of the EXACT conjugate to an extent that is significantly lower than free DAB”.
With “HD1-12A-DAB (GGTTGGTGTGGTTGG; 3' DAB conjugate via C6H12O2 linker, further chemistry not given here)” the “thrombin inhibition, result in words” value [2] was “significantly higher inhibitory effect to thrombin compared with DAB, HD1, or their equimolar mixture” and the “antidote reversal of thrombin inhibition, result in words” value [2] was “efficiently reversed by specific antidotes; also recorded: efficiently reversed by an antisense oligo”.
